Patent US10442791B2, “DNA-PK inhibitors” (Vertex Pharmaceuticals Incorporated, priority 2012, dated 2019)

target: DNA-PK (Homo sapiens, UniProt P78527); assay: DNA-PK inhibition assay (radiometric 33P-ATP kinase assay); assay type: biochemical; conditions: 100 μM ATP; competitive tight-binding fit
Procedure: Compounds were screened for their ability to inhibit DNA-PK kinase using a standard radiometric assay. Briefly, in this kinase assay the transfer of the terminal ^33P-phosphate in ^33P-ATP to a peptide substrate is interrogated. The assay was carried out in 384-well plates to a final volume of 50 μL per well containing approximately 6 nM DNA-PK, 50 mM HEPES (pH 7.5), 10 mM MgCl2, 25 mM NaCl, 0.01% BSA, 1 mM DTT, 10 μg/mL sheared double-stranded DNA (obtained from Sigma), 0.8 mg/mL DNA-PK peptide ([…] obtained from American Peptide), and 100 μM ATP. Accordingly, compounds of the invention were dissolved in DMSO to make 10 mM initial stock solutions. Serial dilutions in DMSO were then made to obtain the final solutions for the assay. A 0.75 μL aliquot of DMSO or inhibitor in DMSO was added to each well, followed by the addition of ATP substrate solution containing ^33P-ATP (obtained from Perkin Elmer). The reaction was started by the addition of DNA-PK, peptide and ds-DNA. After 45 min. the reaction was quenched with 25 μL of 5% phosphoric acid. The reaction mixture was transferred to MultiScreen HTS 384-well PH plates (obtained from Millipore), allowed to bind for one hour, and washed three times with 1% phosphoric acid. Following the addition of 50 μL of Ultima Gold™ high efficiency scintillant (obtained from Perkin Elmer), the samples were counted in a Packard TopCount NXT Microplate Scintillation and Luminescence Counter (Packard BioScience). The Ki values were calculated using Microsoft Excel Solver macros to fit the data to the kinetic model for competitive tight-binding inhibition.

| Compound | Ki |
| --- | --- |
| COc1ccccc1[C@H](C)CNc1cc(-c2ccnc(N[C@@H](C)CO)c2)ncn1 (single isomer, unassigned) [Compound 213] | < 30 nM |
| CNC(=O)c1ccnc2c([C@H](C)CNc3cc(-c4cnc(NC5CCN(CC(F)F)CC5)nc4)ncn3)ccc(F)c12 [Compound 1038] | < 30 nM |
| CNC(=O)c1ccnc2c([C@H](C)CNc3cc(-c4cnc(OC)nc4)ncn3)ccc(F)c12 [Compound 1031] | < 30 nM |
| CNC(=O)c1ccnc2c([C@H](C)CNc3cc(-c4cnc(NC5CC5)nc4)ncn3)ccc(F)c12 [Compound 1028] | < 30 nM |
| CNC(=O)c1c(F)cnc2c([C@H](C)CNc3cc(-c4ccc(N(C)C5CCN(C)CC5)nc4)ncn3)cccc12 [Compound 1087] | < 30 nM |
| CNC(=O)c1c(F)cnc2c([C@H](C)CNc3cc(-c4cnc(CC5CCN(C)CC5)nc4)ncn3)cccc12 [Compound 1002] | < 30 nM |
| CNC(=O)c1c(F)cnc2c([C@H](C)CNc3cc(-c4cnc(N(C)C5CCN(CC(F)F)CC5)nc4)ncn3)cccc12 [Compound 1062] | < 30 nM |
| CNC(=O)c1ccnc2c([C@H](C)CNc3cc(-c4cnc(N(C)C5CCN(C)CC5)nc4)ncn3)cccc12 [Compound 1057] | < 30 nM |
| CNC(=O)c1ccnc2c([C@H](C)CNc3cc(-c4cnc(NCC(F)(F)F)nc4)ncn3)ccc(F)c12 [Compound 1054] | < 30 nM |
| CNC(=O)c1ccnc2c([C@H](C)CNc3cc(-c4ccc(CC5CCN(CC(F)(F)F)CC5)nc4)ncn3)ccc(F)c12 [Compound 1022] | < 30 nM |
| CNC(=O)c1ccnc2c([C@H](C)CNc3cc(-c4cnc(N(C)C5CCN(CC(F)(F)F)CC5)nc4)ncn3)cccc12 [Compound 1061] | < 30 nM |
| CNC(=O)c1ccnc2c([C@H](C)CNc3cc(-c4cnc(OC)c(CO)c4)ncn3)ccc(F)c12 [Compound 883] | < 30 nM |
| CNC(=O)c1ccnc2c([C@H](C)CNc3cc(-c4cnc(COC)nc4)ncn3)ccc(F)c12 [Compound 1000] | < 30 nM |
| COc1ccccc1[C@H](C)CNc1cc(-c2ccc(NCC(O)CO)nc2)ncn1 (single isomer, unassigned) [Compound 200] | < 30 nM |
| CNC(=O)c1c(F)cnc2c([C@H](C)CNc3cc(-c4ccc(N(C)C5CCN(CC(F)F)CC5)nc4)ncn3)cccc12 [Compound 1089] | < 30 nM |
| CNC(=O)c1ccnc2c([C@H](C)CNc3cc(-c4ccc(N(C)C5CCN(CC(F)(F)F)CC5)nc4)ncn3)cccc12 [Compound 1042] | < 30 nM |
| Cc1ccc(-c2cc(NC[C@@H](C)c3ccnc4c3OCCO4)ncn2)cn1 (single isomer, unassigned) [Compound 443] | < 30 nM |
| CNC(=O)c1ccnc2c([C@H](C)CNc3cc(-c4cnc(OC5CCN(C(=O)OC(C)(C)C)C5)nc4)ncn3)cccc12 (some centres unmarked) [Compound 746] | < 30 nM |
| CNC(=O)c1ccc([C@H](C)CNc2cc(-c3ccc(NC(C)COC)nc3)ncn2)c(OC)c1 (single isomer, unassigned) [Compound 394] | < 30 nM |
| CNC(=O)c1c(F)cnc2c([C@H](C)CNc3cc(-c4cnc(NC5CCN(C)CC5)nc4)ncn3)cccc12 [Compound 1079] | < 30 nM |
| Cc1ccc(-c2cc(NCC(C)c3cncc4c3OCC4)ncn2)cn1 (centres unmarked) [Compound 418] | < 30 nM |

Next, values leading:

| Ki | Compound |
| --- | --- |
| < 30 nM | CNC(=O)c1c(F)cnc2c([C@H](C)CNc3cc(-c4cnc(OC(C)(C)C)nc4)ncn3)cccc12 [Compound 997] |
| < 30 nM | CNC(=O)c1c(F)cnc2c([C@H](C)CNc3cc(-c4cnc(NC5CC5)nc4)ncn3)cccc12 [Compound 1032] |
| < 30 nM | CNC(=O)c1ncnc2c([C@H](C)CNc3cc(-c4ccc(C(=O)NCCC#N)cc4)ncn3)cccc12 [Compound 1017] |
| < 30 nM | CNC(=O)c1ccnc2c([C@H](C)CNc3cc(-c4ccc(CC5CCN(C(C)=O)CC5)nc4)ncn3)cccc12 [Compound 1007] |
| < 30 nM | CNC(=O)c1c(F)cnc2c([C@H](C)CNc3cc(-c4cnc(NCC(=O)N(C)C)nc4)ncn3)cccc12 [Compound 1076] |
| < 30 nM | CNC(=O)c1ccnc2c([C@H](C)CNc3cc(-c4cnc(NCCNC(C)=O)nc4)ncn3)cccc12 [Compound 1051] |
| < 30 nM | CNC(=O)c1ccnc2c([C@H](C)CNc3cc(-c4cc(C)nc(C)c4)ncn3)cccc12 [Compound 820] |
| < 30 nM | CNC(=O)c1ccnc2c([C@H](C)CNc3cc(-c4cnc(COC(C)C)nc4)ncn3)cccc12 [Compound 1014] |
| < 30 nM | CNC(=O)c1ncnc2c([C@H](C)CNc3cc(-c4ccc(C(=O)NCCC#N)nc4)ncn3)cccc12 [Compound 1016] |
| < 30 nM | CNC(=O)c1ncnc2c([C@H](C)CNc3cc(-c4ccc(F)nc4)ncn3)cccc12 [Compound 1006] |
| < 30 nM | CNC(=O)c1ccnc2c([C@H](C)CNc3cc(-c4cnc(CC5CCN(C(C)=O)CC5)nc4)ncn3)cccc12 [Compound 1071] |
| < 30 nM | CNC(=O)c1ccnc2c([C@H](C)CNc3cc(-c4ccc(NC5CCN(CC(F)F)CC5)nc4)ncn3)cccc12 [Compound 1083] |
| < 30 nM | [2H]C([2H])([2H])C([2H])([2H])c1ncc(-c2cc(NC[C@@H](C)c3cccc4c(C(=O)NC)c(F)cnc34)ncn2)cn1 [Compound 1004] |
| < 30 nM | CNC(=O)c1ccnc2c([C@H](C)CNc3cc(-c4cnc5c(c4)C(C)OC5)ncn3)cccc12 (single isomer, unassigned) [Compound 1012] |
| < 30 nM | CNC(=O)c1c(F)cnc2c([C@H](C)CNc3cc(-c4cnc(COC)nc4)ncn3)cccc12 [Compound 999] |
| < 30 nM | CNC(=O)c1c(F)cnc2c([C@H](C)CNc3cc(-c4ccc(CC5CCN(C)CC5)nc4)ncn3)cccc12 [Compound 991] |
| < 30 nM | Cc1ccc(-c2cc(NC[C@@H](C)c3cccc4c3ncc3[nH]n(C)c(=O)c34)ncn2)cn1 [Compound 994] |
| < 30 nM | CNC(=O)c1ccnc2c([C@H](C)CNc3cc(-c4cnc(NC5CC5)nc4)ncn3)cccc12 [Compound 1029] |
| < 30 nM | CCOc1ncc(-c2cc(NC[C@@H](C)c3cccc4c(C(=O)NC)c(F)cnc34)ncn2)cn1 [Compound 1030] |
| < 30 nM | CNC(=O)c1ncnc2c([C@H](C)CNc3cc(-c4ccc(OC)nc4)ncn3)cccc12 [Compound 1005] |
| < 30 nM | CCOc1ncc(-c2cc(NC[C@@H](C)c3cccc4c(C(=O)NC)ncnc34)ncn2)cn1 [Compound 1011] |
| < 30 nM | CNC(=O)c1c(F)cnc2c([C@H](C)CNc3cc(-c4ccc(NC5CCN(CC(F)F)CC5)nc4)ncn3)cccc12 [Compound 1084] |
| < 30 nM | CNC(=O)c1ccnc2c([C@H](C)CNc3cc(-c4cnc(CC5CCN(C)CC5)nc4)ncn3)cccc12 [Compound 1001] |
| < 30 nM | CNC(=O)c1c(F)cnc2c([C@H](C)CNc3cc(-c4ccc(NC5CCN(C)CC5)nc4)ncn3)cccc12 [Compound 1063] |
| < 30 nM | CNC(=O)c1ccnc2c([C@H](C)CNc3cc(-c4cnc(N(C)C5CCN(C(C)=O)CC5)nc4)ncn3)cccc12 [Compound 1081] |
| < 30 nM | CNC(=O)c1c(F)cnc2c([C@H](C)CNc3cc(-c4cnc(NCC(F)(F)F)nc4)ncn3)cccc12 [Compound 1033] |
